What was measured:
Assay type in all cases: functional, organism-based
[1] = tested on: Plasmodium falciparum; experiment: Antimalarial activity against Plasmodium falciparum HB3 assessed as inhibition of [3H] incorporation after 48 hrs by scintillation counter
[2] = tested on: Plasmodium falciparum; experiment: Antimalarial activity against Plasmodium falciparum IMT 31 assessed as inhibition of [3H] incorporation after 48 hrs by scintillation counter
[3] = tested on: Plasmodium falciparum; experiment: Antimalarial activity against Plasmodium falciparum IMT 8425 assessed as inhibition of [3H] incorporation after 48 hrs by scintillation counter
[4] = tested on: Plasmodium falciparum; experiment: Antimalarial activity against Plasmodium falciparum FCR3 assessed as inhibition of [3H] incorporation after 48 hrs by scintillation counter
[5] = tested on: Plasmodium falciparum; experiment: Antimalarial activity against Plasmodium falciparum IMT Vol harboring Ppcrt M74I, N75E, K76T, A220S, Q271E, N326S mutant gene, Pmdr1 N86Y mutant gene and Pfmrp H191Y and S437A mutant gene assessed as incorporation of [3]H hypoxanthine after 48 hrs by scintillation counter
[6] = tested on: Plasmodium falciparum; experiment: Antimalarial activity against Plasmodium falciparum IMT Guy assessed as inhibition of [3H] incorporation after 48 hrs by scintillation counter
[7] = tested on: Plasmodium falciparum; experiment: Antimalarial activity against Plasmodium falciparum IMT K2 assessed as inhibition of [3H] incorporation after 48 hrs by scintillation counter
[8] = tested on: Plasmodium falciparum; experiment: Antimalarial activity against Plasmodium falciparum IMT L1 assessed as inhibition of [3H] incorporation after 48 hrs by scintillation counter
[9] = tested on: Plasmodium falciparum; experiment: Antimalarial activity against Plasmodium falciparum FCR3 harboring Ppcrt M74I, N75E, K76T, A220S, Q271E, N326S and I356T mutant gene, Pmdr1 N86Y mutant gene and Pfmrp H191Y and S437A mutant gene assessed as incorporation of [3]H hypoxanthine after 48 hrs by scintillation counter; settings: FCR3, 48 h
[10] = tested on: Plasmodium falciparum; experiment: Antimalarial activity against Plasmodium falciparum IMT A4 assessed as inhibition of [3H] incorporation after 48 hrs by scintillation counter
[11] = tested on: Plasmodium falciparum; experiment: Antimalarial activity against Plasmodium falciparum IMT 10354 assessed as inhibition of [3H] incorporation after 48 hrs by scintillation counter
[12] = tested on: Plasmodium falciparum; experiment: Antimalarial activity against Plasmodium falciparum D6 harboring Ppcrt I371R mutant gene assessed as incorporation of [3]H hypoxanthine after 48 hrs by scintillation counter; settings: D6, 48 h
[13] = tested on: Plasmodium falciparum; experiment: Antimalarial activity against Plasmodium falciparum IMT 9881 harboring Ppcrt I371R mutant gene assessed as incorporation of [3]H hypoxanthine after 48 hrs by scintillation counter; settings: IMT 9881, 48 h
[14] = tested on: Plasmodium falciparum; experiment: Antimalarial activity against Plasmodium falciparum 106/1 harboring Ppcrt M74I, N75E, K76T, A220S, Q271E, N326S and I356T mutant gene, Pmdr1 N86Y mutant gene and Pfmrp H191Y and S437A mutant gene assessed as incorporation of [3]H hypoxanthine after 48 hrs by scintillation counter; settings: 106/1, 48 h
[15] = tested on: Plasmodium falciparum; experiment: Antimalarial activity against Plasmodium falciparum PA harboring Ppcrt M74I, N75E, K76T, A220S, Q271E, N326S and I356T mutant gene, Pmdr1 N86Y mutant gene and Pfmrp H191Y and S437A mutant gene assessed as incorporation of [3]H hypoxanthine after 48 hrs by scintillation counter
[16] = tested on: Plasmodium falciparum; experiment: Antimalarial activity against Plasmodium falciparum HB3 harboring Ppcrt I371R mutant gene and Pfmdr1 Y184F mutant gene assessed as incorporation of [3]H hypoxanthine after 48 hrs by scintillation counter; settings: HB3, 48 h
[17] = tested on: Plasmodium falciparum; experiment: Antimalarial activity against Plasmodium falciparum IMT 16332 harboring Ppcrt M74I, N75E, K76T, A220S, Q271E mutant gene, Pmdr1 N86Y mutant gene assessed as incorporation of [3]H hypoxanthine after 48 hrs by scintillation counter; settings: IMT 16332, 48 h
[18] = tested on: Plasmodium falciparum; experiment: Antimalarial activity against Plasmodium falciparum 106/1 assessed as inhibition of [3H] incorporation after 48 hrs by scintillation counter
[19] = tested on: Plasmodium falciparum; experiment: Antimalarial activity against Plasmodium falciparum IMT 10500 assessed as inhibition of [3H] incorporation after 48 hrs by scintillation counter
[20] = tested on: Plasmodium falciparum; experiment: Antimalarial activity against Plasmodium falciparum PA assessed as inhibition of [3H] incorporation after 48 hrs by scintillation counter
[21] = tested on: Plasmodium falciparum; experiment: Antimalarial activity against Plasmodium falciparum W2 assessed as inhibition of [3H] incorporation after 48 hrs by scintillation counter
[22] = tested on: Plasmodium falciparum; experiment: Antimalarial activity against Plasmodium falciparum IMT K4 assessed as inhibition of [3H] incorporation after 48 hrs by scintillation counter
[23] = tested on: Plasmodium falciparum; experiment: Antimalarial activity against Plasmodium falciparum IMT 10336 assessed as inhibition of [3H] incorporation after 48 hrs by scintillation counter
[24] = tested on: Plasmodium falciparum; experiment: Antimalarial activity against Plasmodium falciparum IMT 10500 harboring Pfcrt Q271E mutant gene and Ppcrt I371R mutant gene and Pfnhe-1 ms4760 microsatellite mutant assessed as incorporation of [3]H hypoxanthine after 48 hrs by scintillation counter; settings: IMT 10500, 48 h
[25] = tested on: Plasmodium falciparum; experiment: Antimalarial activity against Plasmodium falciparum IMT 8425 harboring Ppcrt I371R mutant gene and Pfnhe-1 ms4760 microsatellite mutant assessed as incorporation of [3]H hypoxanthine after 48 hrs by scintillation counter; settings: IMT 8425, 48 h
[26] = tested on: Plasmodium falciparum; experiment: Antimalarial activity against Plasmodium falciparum IMT 10336 harboring Pfcrt Q271E mutant gene and Ppcrt I371R mutant gene assessed as incorporation of [3]H hypoxanthine after 48 hrs by scintillation counter; settings: IMT 10336, 48 h
[27] = tested on: Plasmodium falciparum; experiment: Antimalarial activity against Plasmodium falciparum FCM29 assessed as inhibition of [3H] incorporation after 48 hrs by scintillation counter
[28] = tested on: Plasmodium falciparum; experiment: Antimalarial activity against Plasmodium falciparum IMT Bres assessed as inhibition of [3H] incorporation after 48 hrs by scintillation counter
[29] = tested on: Plasmodium falciparum; experiment: Antimalarial activity against Plasmodium falciparum D6 assessed as inhibition of [3H] incorporation after 48 hrs by scintillation counter
[30] = tested on: Plasmodium falciparum; experiment: Antimalarial activity against Plasmodium falciparum IMT K4 harboring Ppcrt M74I, N75E, K76T, A220S, Q271E, N326S mutant gene, Pmdr1 S1034C, N1042D mutant gene and Pfmrp H191Y and S437A mutant gene assessed as incorporation of [3]H hypoxanthine after 48 hrs by scintillation counter; settings: IMT K4, 48 h
[31] = tested on: Plasmodium falciparum; experiment: Antimalarial activity against Plasmodium falciparum IMT L1 harboring Ppcrt M74I, N75E, K76T, A220S, Q271E mutant gene, Pmdr1 N86Y mutant gene and Pfmrp H191Y and S437A mutant gene assessed as incorporation of [3]H hypoxanthine after 48 hrs by scintillation counter; settings: IMT L1, 48 h
[32] = tested on: Plasmodium falciparum; experiment: Antimalarial activity against Plasmodium falciparum FCM29 harboring Ppcrt M74I, N75E, K76T, A220S, Q271E, N326S and I356T mutant gene, Pmdr1 N86Y mutant gene and Pfmrp H191Y and S437A mutant gene assessed as incorporation of [3]H hypoxanthine after 48 hrs by scintillation counter; settings: FCM29, 48 h
[33] = tested on: Plasmodium falciparum; experiment: Antimalarial activity against Plasmodium falciparum IMT K14 assessed as inhibition of [3H] incorporation after 48 hrs by scintillation counter
[34] = tested on: Plasmodium falciparum; experiment: Antimalarial activity against Plasmodium falciparum 3D7 harboring Ppcrt I371R mutant gene and Pfnhe-1 ms4760 microsatellite mutant assessed as incorporation of [3]H hypoxanthine after 48 hrs by scintillation counter; settings: 3D7, 48 h
[35] = tested on: Plasmodium falciparum; experiment: Antimalarial activity against Plasmodium falciparum 3D7 assessed as inhibition of [3H] incorporation after 48 hrs by scintillation counter
[36] = tested on: Plasmodium falciparum; experiment: Antimalarial activity against Plasmodium falciparum IMT 31 harboring Ppcrt I371R mutant gene assessed as incorporation of [3]H hypoxanthine after 48 hrs by scintillation counter; settings: IMT 31, 48 h
[37] = tested on: Plasmodium falciparum; experiment: Antimalarial activity against Plasmodium falciparum W2 harboring Ppcrt M74I, N75E, K76T, A220S, Q271E, N326S and I356T mutant gene, Pmdr1 N86Y mutant gene and Pfmrp H191Y and S437A mutant gene assessed as incorporation of [3]H hypoxanthine after 48 hrs by scintillation counter; settings: W2, 48 h
[38] = tested on: Plasmodium falciparum; experiment: Antimalarial activity against Plasmodium falciparum IMT A4 harboring Ppcrt M74I, N75E, K76T, […], Q271E, N326S and I356T mutant gene, Pmdr1 Y184F, N1042D, D1246Y mutant gene assessed as incorporation of [3]H hypoxanthine after 48 hrs by scintillation counter; settings: IMT A4, 48 h
[39] = tested on: Plasmodium falciparum; experiment: Antimalarial activity against Plasmodium falciparum IMT 10354 harboring Ppcrt M74I, N75E, K76T, A220S mutant gene, Pmdr1 D1246Y mutant gene assessed as incorporation of [3]H hypoxanthine after 48 hrs by scintillation counter; settings: IMT 10354, 48 h
[40] = tested on: Plasmodium falciparum; experiment: Antimalarial activity against Plasmodium falciparum IMT Guy harboring Ppcrt K76T, A220S, N326D and I371R mutant gene, Pmdr1 […], 1042D and D1246Y, mutant gene and Pfmrp H191Y and S437A mutant gene and Pfnhe-1 ms4760 microsatellite mutant assessed as incorporation of [3]H hypoxanthine after 48 hrs by scintillation counter
[41] = tested on: Plasmodium falciparum; experiment: Antimalarial activity against Plasmodium falciparum IMT K2 harboring Ppcrt M74I, N75E, K76T, A220S, Q271E, N326S mutant gene, Pmdr1 S1034C, N1042D mutant gene and Pfmrp H191Y and S437A mutant gene assessed as incorporation of [3]H hypoxanthine after 48 hrs by scintillation counter; settings: IMT K2, 48 h
[42] = tested on: Plasmodium falciparum; experiment: Antimalarial activity against Plasmodium falciparum IMT K14 harboring Ppcrt M74I, N75E, K76T, A220S, Q271E, N326S mutant gene, Pmdr1 Y184F, S1034C, N1042D, D1246Y mutant gene and Pfmrp H191Y and S437A mutant gene assessed as incorporation of [3]H hypoxanthine after 48 hrs by scintillation counter; settings: IMT K14, 48 h
[43] = tested on: Plasmodium falciparum; experiment: Antimalarial activity against Plasmodium falciparum IMT Bres harboring Ppcrt M74I, N75E, K76T, A220S, Q271E, N326S and I356T mutant gene, Pmdr1 N86Y mutant gene and Pfmrp H191Y and S437A mutant gene assessed as incorporation of [3]H hypoxanthine after 48 hrs by scintillation counter
[44] = tested on: Plasmodium falciparum; experiment: Antimalarial activity against Plasmodium falciparum IMT 16332 assessed as inhibition of [3H] incorporation after 48 hrs by scintillation counter
[45] = tested on: Plasmodium falciparum; experiment: Antimalarial activity against Plasmodium falciparum IMT 9881 assessed as inhibition of [3H] incorporation after 48 hrs by scintillation counter
[46] = tested on: Plasmodium falciparum; experiment: Antimalarial activity against Plasmodium falciparum IMT Vol assessed as inhibition of [3H] incorporation after 48 hrs by scintillation counter

Clc1ccc2c(N3CCN(CCCN4CCN(c5ccnc6cc(Cl)ccc56)CC4)CC3)ccnc2c1 [PIPERAQUINE]
IC50 [1]: 55 nM
IC50 [2]: 48 nM
IC50 [3]: 44 nM
IC50 [4]: 53 nM
IC50 [5]: 37 nM
IC50 [6]: 63 nM
IC50 [7]: 84 nM
IC50 [8]: 47 nM
IC50 [9]: 53 nM
IC50 [10]: 75 nM
IC50 [11]: 29 nM
IC50 [12]: 58 nM
IC50 [13]: 56 nM
IC50 [14]: 69 nM
IC50 [15]: 80 nM
IC50 [16]: 55 nM
IC50 [17]: 48 nM
IC50 [18]: 69 nM
IC50 [19]: 81 nM
IC50 [20]: 80 nM
IC50 [21]: 52 nM
IC50 [22]: 64 nM
IC50 [23]: 74 nM
IC50 [24]: 81 nM
IC50 [25]: 44 nM
IC50 [26]: 74 nM
IC50 [27]: 98 nM
IC50 [28]: 46 nM
IC50 [29]: 58 nM
IC50 [30]: 64 nM
IC50 [31]: 47 nM
IC50 [32]: 98 nM
IC50 [33]: 61 nM
IC50 [34]: 58 nM
IC50 [35]: 58 nM
IC50 [36]: 48 nM
IC50 [37]: 52 nM
IC50 [38]: 75 nM
IC50 [39]: 29 nM
IC50 [40]: 63 nM
IC50 [41]: 84 nM
IC50 [42]: 61 nM
IC50 [43]: 46 nM
IC50 [44]: 48 nM

C[C@H]1c2cccc(O)c2C(=O)C2=C(O)[C@]3(O)C(=O)C(C(N)=O)=C(O)[C@@H](N(C)C)[C@@H]3[C@@H](O)[C@@H]21 [DOXYCYCLINE]
IC50 [3]: 10900 nM
IC50 [10]: 9200 nM
IC50 [11]: 4600 nM
IC50 [45]: 8700 nM
IC50 [22]: 10200 nM
IC50 [46]: 9100 nM
IC50 [27]: 11600 nM
IC50 [33]: 11500 nM
IC50 [44]: 13700 nM

Source: ChEMBL document CHEMBL1649312, “Absence of association between piperaquine in vitro responses and polymorphisms in the pfcrt, pfmdr1, pfmrp, and pfnhe genes in Plasmodium falciparum” (Antimicrob Agents Chemother, 2010)
